Key:
Assay type in all cases: cell-based
[1] = system: cell populations in a clinical specimen derived from uterine cervix; experiment: Effect of removing mucus in clinical specimens of uterine cervix for cytodiagnosis (Giemsa stain, light microscope)
Description: Cell populations in a clinical specimen derived from uterine cervix which had been stored in 30 to 60 mass % methanol-based, buffered preservative solution (PreservCyt® manufactured by Cytyc Corporation) was transferred to a 1.5 ml centrifuge tube (about 1×10^5 cells/sample).
The solution was centrifuged (10000 rpm; 1 minute; 4° C.) to separate cells, and the supernatant was removed.
To the cells thus collected was added 1 ml of a mixture (hereinafter referred to as PBS-T) of 0.1% Tween 20 (Sigma) and 0.01M phosphate buffer (PBS available from Sigma; pH7.4) and the cells were resuspended.
The cells were washed by another centrifugation (10000 rpm, 1 minute, 4° C.) for cell separation, removal of the supernatant and cell collection. The cells washed were resuspended in 500 μl of the preservative solution.
10 mass % aqueous solution of N-acetyl-L-cysteine (hereinafter referred to as AcCys) was prepared for a cell treatment solution. This cell treatment solution was added to the cell suspension obtained from the above, and samples of B to E were prepared so that the AcCys concentrations in the samples were 0.625 mass %, 1.25 mass % or 5 mass %.
The solution obtained after the reaction was finished was then centrifuged (10000 rpm; 1 minute; 4° C.) to separate cells, and the supernatant was removed and cells were collected.
The cells were washed by resuspension in 1 ml of PBS-T, another centrifugation (10000 rpm; 1 minute, 4° C.) for cell separation, and removal of the supernatant. This washing procedure was repeated two times.
The cells collected were suspended in 300 μl of 100% methanol and mounted on a glass slide by using Cytospin. Then, cells on the slide were stained with 5% Giemsa Stain Solution (Sysmex) for 15 minutes, washed thoroughly with PBS, and observed under a light microscope to give micrographs of FIG. 1 to 5 for each sample of A to E. […]

squamous cells = experiment: Staining with fluorescent-labeled anti-NMP 179 antibody after treatment; conditions: cells treated with 5 mass % AcCys (FIG. 8)
Description: Squamous cells which were not treated with AcCys and squamous cells which were treated with 5 mass % AcCys were stained with a fluorescent-labeled anti-NMP 179 antibody which reacts with cells derived from uterine cervix except for normal uterine cervix squamous cells, and observed under a microscope to give each result of fluorescent image in FIG. 7 and FIG. 8.

[2] = system: cell populations of clinical specimen; experiment: Effect of the cell treatment solution on cell morphology; conditions: 5 minutes compared with 1 minute
Description: The cell treatment solutions containing L-cysteine at concentrations of 5 mass %, 10 mass % and 20 mass % were used to treat cell populations of clinical specimen for 1 minute or 5 minutes in the same manner of the above, and the cells were observed. The results of each sample treated with the solutions containing 5 mass %, 10 mass % and 20 mass % L-cysteine for 1 minute and 5 minutes were shown in FIG. 9 to FIG. 14.

Compound	mucus part (black clumps) after treatment ([1]; AcCys 5 mass % (Sample E), room temperature, 1 minute)	mucus part (black clumps) after treatment ([1]; AcCys 5 mass % (Sample F), reaction time 24 hours)	mucus part (black clumps) after treatment ([1]; AcCys under 5 mass % (Samples B to D), room temperature, 1 minute)	specificity of fluorescent anti-NMP179 antibody staining (squamous cells)	effect on cell morphology ([2]; 5 mass % L-cysteine)	effect on cell morphology ([2]; 10 mass % L-cysteine)	effect on cell morphology ([2]; 20 mass % L-cysteine)
CC(=O)N[C@@H](CS)C(=O)O [AcCys, N-acetyl-L-cysteine]	black clumps showing mucus part were disappeared	black clumps showing mucus part were disappeared	there remained black clumps which showed mucus part	specific staining			
N[C@@H](CS)C(=O)O [L-cysteine]					did not affect the cell morphology	did not affect the cell morphology	did not affect the cell morphology

From US20070054258A1, “Method of removing mucus and cell treatment solution and preservative solution used therefor” (SYSMEX CORPORATION, priority 2003, published 2007)
